pIC50: −log10 of the molar value. Read-outs that look alike come from different tables or passages of the source.
Legend:
human PI3Kα protein = biological target: T1, human PI3Kα protein (Homo sapiens, UniProt P42336); experiment: PI3Kα enzyme assay (ADP-Glo kinase assay); assay type: biochemical; conditions: 3 nM PI3Kα, 50 μM PIP2, 100 μM ATP
T1 construct: purchased Carna Biosciences, Inc; host or cells: Baculovirus expression system
Experimental: Evaluation of the PI3Kα inhibitory activity of the compound of the present invention was carried out according to the method as described below.
For the PI3Kα enzyme assay, biotinylated product of a human PI3Kα protein produced using a Baculovirus expression system (Carna Biosciences, Inc.) was used. Further, for the detection of the enzyme activity, an ADP-Glo kinase assay (PROMEGA Corporation) was used.
10 μL of a reaction solution (3 nM PI3Kα, 40 mM Tris-HCl, 20 mM MgCl2, 0.1% BSA, pH 7.5) including the human PI3Kα protein and a test compound at a predetermined concentration was incubated at room temperature for 15 minutes. Thereafter, 5 μL of a mixed solution of L-α-Phosphatidylinositol 4,5-diphosphate (PIP2) (SIGMA-ALDLICH) which was a substrate and ATP(SIGMA-ALDLICH) was added thereto to a final concentration of 50 μM and 100 μM, respectively, and the reaction solution was further incubated at 25° C. for 60 minutes to carry out an enzyme reaction.
After the reaction, 15 μL of an ADP-Glo reagent (PROMEGA Corporation) was added and the resulting liquid was incubated at room temperature for 60 minutes, whereby the enzyme reaction was stopped. Thereafter, after further adding 30 μL of a Kinase Detection Reagent (PROMEGA Corporation) and standing the resulting solution at room temperature for 40 minutes, ADP produced by the enzyme reaction was quantified by luminescence intensity.
For the measurement of luminescence intensity, EnVision (PerkinElmer, Inc.) was used.
(§1) The inhibitory activity of the compounds was evaluated using an IC50 (50% inhibitory concentration). The IC50 was calculated using XLfit (IDBS).

[1] = biological target: T2, glutathione S-transferase (GST)-fusion human ERK2 protein (Homo sapiens, UniProt P28482); experiment: ERK2 enzyme assay (LabChip mobility shift); assay type: biochemical; conditions: 2 nM ERK2, 4.25 μM FL-Peptide 8, 43 μM ATP
T2 construct: purchased Carna Biosciences, Inc; host or cells: E. coli expression system
Experimental: Evaluation of the ERK2 inhibitory activity of the compound of the present invention was carried out according to the method as described below.
For the ERK2 enzyme assay, a glutathione S-transferase (GST)-fusion human ERK2 protein (Carna Biosciences, Inc.) produced using an E. coli expression system was used.
12 μL of the reaction solution (2 nM ERK2, 100 mM Hepes, 10 mM MgCl2, 1.5 mM DTT, 0.003% Brij35, pH 7.5) including the ERK2 protein and a test compound at a predetermined concentration was incubatedat room temperature for 15 minutes. Thereafter, 3 μL of a mixed solution of FL-Peptide 8 (5-FAM-IPTSPITTTYFFFKKK-COOH) (Caliper Lifescience) which was a substrate and ATP(SIGMA-ALDLICH) were added thereto to a final concentration of 4.25 μM and 43 μM, respectively. The reaction solution was further incubated at 25° C. for 120 minutes to carry out an enzyme reaction.
The enzyme reaction was stopped by adding 27 μL of a reaction-stopping solution (100 mM HEPES, 11.2 mM EDTA, 5.6% Brij35, pH 7.5) including a 0.5% Coating reagent 8 (PerkinElmer, Inc.) after the reaction. Thereafter, non-phosphorylated peptides and phosphorylated peptides were separated using LabChip Ez Reader (Caliper LifeScience, Inc.) to quantify the proportion of phosphorylated peptides.
as §1

[2] = IC50 class, read-out: PI3Kα Inhibitory Activity
[3] = IC50 class, read-out: ERK2 Inhibitory Activity

T1 sequence (P42336 whole entry): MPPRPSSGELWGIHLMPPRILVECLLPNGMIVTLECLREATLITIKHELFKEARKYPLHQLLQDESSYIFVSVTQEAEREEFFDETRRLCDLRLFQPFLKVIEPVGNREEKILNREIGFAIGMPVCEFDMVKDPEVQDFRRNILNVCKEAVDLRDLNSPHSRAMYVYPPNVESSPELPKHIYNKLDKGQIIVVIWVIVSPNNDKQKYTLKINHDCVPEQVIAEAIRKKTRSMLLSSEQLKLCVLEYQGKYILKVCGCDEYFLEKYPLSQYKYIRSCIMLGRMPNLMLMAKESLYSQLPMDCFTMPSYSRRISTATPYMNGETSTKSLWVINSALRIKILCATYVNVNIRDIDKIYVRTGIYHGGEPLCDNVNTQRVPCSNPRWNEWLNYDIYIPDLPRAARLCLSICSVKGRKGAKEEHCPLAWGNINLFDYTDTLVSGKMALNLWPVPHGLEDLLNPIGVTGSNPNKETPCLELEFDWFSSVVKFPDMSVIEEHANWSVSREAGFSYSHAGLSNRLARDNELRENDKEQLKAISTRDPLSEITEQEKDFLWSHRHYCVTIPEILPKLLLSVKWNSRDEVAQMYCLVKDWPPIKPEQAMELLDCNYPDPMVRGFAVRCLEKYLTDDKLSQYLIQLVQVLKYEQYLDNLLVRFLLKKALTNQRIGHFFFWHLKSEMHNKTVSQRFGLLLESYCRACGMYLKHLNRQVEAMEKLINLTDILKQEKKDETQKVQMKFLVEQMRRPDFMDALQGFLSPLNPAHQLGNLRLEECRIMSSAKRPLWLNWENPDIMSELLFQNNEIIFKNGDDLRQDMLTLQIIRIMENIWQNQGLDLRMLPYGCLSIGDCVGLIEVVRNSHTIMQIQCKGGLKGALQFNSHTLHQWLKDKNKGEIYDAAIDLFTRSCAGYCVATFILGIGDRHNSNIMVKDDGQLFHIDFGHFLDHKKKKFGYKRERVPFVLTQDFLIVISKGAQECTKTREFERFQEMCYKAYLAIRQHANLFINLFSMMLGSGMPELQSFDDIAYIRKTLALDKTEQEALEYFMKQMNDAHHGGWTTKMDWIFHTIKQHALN
T1 sequence (P27986 whole entry partner): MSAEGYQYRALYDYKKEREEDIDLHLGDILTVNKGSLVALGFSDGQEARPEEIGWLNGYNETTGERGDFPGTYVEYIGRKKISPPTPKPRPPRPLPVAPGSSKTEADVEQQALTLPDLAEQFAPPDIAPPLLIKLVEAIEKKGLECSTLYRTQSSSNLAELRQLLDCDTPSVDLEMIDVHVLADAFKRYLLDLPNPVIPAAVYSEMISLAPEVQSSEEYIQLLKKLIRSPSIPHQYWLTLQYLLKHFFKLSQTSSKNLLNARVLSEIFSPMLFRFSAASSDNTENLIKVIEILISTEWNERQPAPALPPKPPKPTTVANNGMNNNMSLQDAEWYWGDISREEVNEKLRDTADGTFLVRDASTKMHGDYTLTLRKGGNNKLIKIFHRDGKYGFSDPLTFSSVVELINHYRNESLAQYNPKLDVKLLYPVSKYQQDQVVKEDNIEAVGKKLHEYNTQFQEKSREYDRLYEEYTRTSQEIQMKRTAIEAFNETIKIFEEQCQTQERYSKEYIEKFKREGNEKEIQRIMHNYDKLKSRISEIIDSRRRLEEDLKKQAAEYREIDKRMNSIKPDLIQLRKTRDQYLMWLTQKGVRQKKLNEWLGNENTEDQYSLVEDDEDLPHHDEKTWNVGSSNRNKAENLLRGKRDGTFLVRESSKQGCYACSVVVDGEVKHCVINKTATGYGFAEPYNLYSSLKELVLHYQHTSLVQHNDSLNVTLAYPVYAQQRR
T2 sequence (P28482 whole entry, the tested form may be a part): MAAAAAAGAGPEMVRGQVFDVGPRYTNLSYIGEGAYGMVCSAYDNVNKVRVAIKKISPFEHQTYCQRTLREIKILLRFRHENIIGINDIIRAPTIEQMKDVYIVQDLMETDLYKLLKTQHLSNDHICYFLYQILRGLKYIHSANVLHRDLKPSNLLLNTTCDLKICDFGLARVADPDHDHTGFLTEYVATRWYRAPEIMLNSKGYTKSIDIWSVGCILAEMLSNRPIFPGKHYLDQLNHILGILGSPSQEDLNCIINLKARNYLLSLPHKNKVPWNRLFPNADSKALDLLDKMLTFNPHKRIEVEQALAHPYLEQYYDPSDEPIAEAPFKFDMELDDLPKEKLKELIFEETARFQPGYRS

Row | Structure (SMILES) | pIC50 (human PI3Kα protein; [2]) | pIC50 [1, 3] | pIC50 (human PI3Kα protein; read-out: PI3Kα, IC50) | pIC50 ([1]; read-out: ERK2, IC50)
1 | O=C(Nc1ccc2ncc(-c3cnn(C4CCNCC4)c3)cc2n1)NC1CCCC1 [Compound 0214] | > 7.00 | 6.00 to 7.00 |  | 
2 | O=C(Nc1ccc2ncc(-c3cnn(CCCN4CCOCC4)c3)cc2n1)N[C@@H]1CCN(Cc2ccccc2)C1 [Compound 0175] | 6.00 to 7.00 | > 7.00 |  | 
3 | C[C@@H](C[C@H](C)Oc1ccccc1)NC(=O)Nc1ccc2ncc(-c3cn[nH]c3)cc2n1 [Compound 0163] | 6.00 to 7.00 | 6.00 to 7.00 |  | 
4 | C[C@H](CN(C)C)Cn1cc(-c2cnc3ccc(NC(=O)NC4CCCC4)nc3c2)cn1 [Compound 0244] | > 7.00 | > 7.00 |  | 
5 | Cn1cc(-c2cnc3ccc(NC(=S)NC(=O)c4ccccc4)nc3c2)cn1 [Compound 0251] | 6.00 to 7.00 | 6.00 to 7.00 |  | 
6 | O=C(Nc1ccc2ncc(-c3ccccc3)cc2n1)NC1CCCC1 [Compound 0006] | 6.00 to 7.00 | 6.00 to 7.00 |  | 
7 | O=C(Nc1ccc2ncccc2n1)NC1CCCC1 [Compound 0116] | 6.00 to 7.00 | 5.00 to 6.00 |  | 
8 | O=C(Nc1ccc2ncc(-c3ccc4[nH]ncc4c3)cc2n1)NC1CCCC1 [Compound 0122] | > 7.00 | > 7.00 |  | 
9 | O=C(NCc1ccccc1)Nc1ccc2ncc(-c3cn[nH]c3)cc2n1 [Compound 0060] | 6.00 to 7.00 | > 7.00 |  | 
10 | O=C(Nc1ccc2ncc(-c3ccnc(F)c3)cc2n1)NC1CCCC1 [Compound 0039] | 6.00 to 7.00 | > 7.00 |  | 
11 | CN1CC(Cn2cc(-c3cnc4ccc(NC(=O)NC5CCCC5)nc4c3)cn2)C1 [Compound 0147] | > 7.00 | > 7.00 |  | 
12 | CCCCCNC(=O)Nc1ccc2ncc(-c3cn[nH]c3)cc2n1 [Compound 0094] | > 7.00 | > 7.00 |  | 
13 | CC(C)[C@H](C)NC(=O)Nc1ccc2ncc(-c3cn[nH]c3)cc2n1 [Compound 0083] | > 7.00 | > 7.00 |  | 
14 | O=C(Nc1ccc2ncc(-c3cnn(CCN4CCOCC4)c3)cc2n1)NS(=O)(=O)c1ccccc1 [Compound 0208] | < 5.00 | < 5.00 |  | 
15 | C=CCNC(=O)Nc1ccc2ncc(-c3cn[nH]c3)cc2n1 [Compound 0056] | 6.00 to 7.00 | > 7.00 |  | 
16 | CC(C)[C@@H](C)NC(=O)Nc1ccc2ncc(-c3cn[nH]c3)cc2n1 [Compound 0082] | > 7.00 | > 7.00 |  | 
17 | O=C(Nc1ccc2ncc(-c3cn[nH]n3)cc2n1)NC1CCCC1 [Compound 0156] | > 7.00 | > 7.00 |  | 
18 | O=C(NCC1CCCCO1)Nc1ccc2ncc(-c3cn[nH]c3)cc2n1 (centres unmarked) [Compound 0189] | 6.00 to 7.00 | > 7.00 |  | 
19 | O=C(NCC1C[C@@H]2CC[C@H]1C2)Nc1ccc2ncc(-c3cnn(CCN4CCNCC4)c3)cc2n1 (some centres unmarked) [Compound 0252] | 6.00 to 7.00 | 6.00 to 7.00 |  | 
20 | O=C(Nc1ccc2ncc(-c3cn[nH]c3)cc2n1)NC1Cc2ccccc2C1 [Compound 0086] | > 7.00 | > 7.00 |  | 
21 | O=C(Nc1ccc2ncc(Oc3cnccn3)cc2n1)NC1CCCC1 [Compound 0224] | 6.00 to 7.00 | 5.00 to 6.00 |  | 
22 | CN1CCN(CCn2cc(-c3cnc4ccc(NC(=O)NC5CCCC5)nc4c3)cn2)CC1 [Compound 0223] | > 7.00 | > 7.00 |  | 

Row | Structure (SMILES) | pIC50 (human PI3Kα protein; [2]) | pIC50 [1, 3] | pIC50 (human PI3Kα protein; read-out: PI3Kα, IC50) | pIC50 ([1]; read-out: ERK2, IC50)
23 | CC(C)(C)NC(=O)Nc1ccc2ncc(-c3cnn(CCCN4CCNCC4)c3)cc2n1 [Compound 0164] | > 7.00 | > 7.00 |  | 
24 | O=C(Nc1ccc2ncc(NC(=O)c3ccccc3)cc2n1)NC1CCCC1 [Compound 0134] | > 7.00 | 5.00 to 6.00 |  | 
25 | CC(C)(C)OC(=O)N1CC[C@@H](NC(=O)Nc2ccc3ncc(-c4cn[nH]c4)cc3n2)C1 [Compound 0070] | 6.00 to 7.00 | > 7.00 |  | 
26 | CS(=O)(=O)Nc1cccc(-c2cnc3ccc(NC(=O)NC4CCCC4)nc3c2)c1 [Compound 0035] | > 7.00 | > 7.00 |  | 
27 | COc1cc(-c2cnc3ccc(NC(=O)NC4CCCC4)nc3c2)cnc1OC [Compound 0014] | 6.00 to 7.00 | 6.00 to 7.00 |  | 
28 | O=C(NCCc1ccccc1)Nc1ccc2ncc(-c3cn[nH]c3)cc2n1 [Compound 0089] | 6.00 to 7.00 | > 7.00 |  | 
29 | CC(C)(C)OC(=O)N1CC[C@H](NC(=O)Nc2ccc3ncc(-c4cn[nH]c4)cc3n2)C1 [Compound 0071] | > 7.00 | 6.00 to 7.00 |  | 
30 | O=C(NCCCCc1ccccc1)Nc1ccc2ncc(-c3cn[nH]c3)cc2n1 [Compound 0064] | > 7.00 | > 7.00 | 7.30 | > 8.52
31 | O=C(Nc1ccc2ncc(-c3cnn(CCCN4CC[C@@H](F)C4)c3)cc2n1)NC1CCCC1 [Compound 0248] | > 7.00 | > 7.00 |  | 
32 | O=C(Nc1ccc2ncc(-c3ccoc3)cc2n1)NC1CCCC1 [Compound 0119] | 6.00 to 7.00 | > 7.00 |  | 
33 | O=C(Nc1ccc2ncc(Nc3cn[nH]c3)cc2n1)NC1CCCC1 [Compound 0125] | > 7.00 | 6.00 to 7.00 | > 8.52 | 6.49
34 | CCN1CCN(CCCn2cc(-c3cnc4ccc(NC(=O)NC5CCCC5)nc4c3)cn2)CC1 [Compound 0233] | > 7.00 | > 7.00 |  | 
35 | C[C@@H](NC(=O)Nc1ccc2ncc(-c3cn[nH]c3)cc2n1)c1ccccc1 [Compound 0139] | 6.00 to 7.00 | > 7.00 |  | 
36 | O=C(Nc1ccc2ncc(-c3cnc4ccccc4c3)cc2n1)NC1CCCC1 [Compound 0121] | 5.00 to 6.00 | 5.00 to 6.00 |  | 
37 | O=C(NC[C@H]1CCCO1)Nc1ccc2ncc(-c3cn[nH]c3)cc2n1 [Compound 0192] | 6.00 to 7.00 | > 7.00 |  | 
38 | C[C@H](C[C@H](C)NC(=O)Nc1ccc2ncc(-c3cn[nH]c3)cc2n1)Oc1ccccc1 [Compound 0162] | 6.00 to 7.00 | 6.00 to 7.00 |  | 
39 | O=C(Nc1ccc2ncc(-c3cn[nH]c3)cc2n1)NC1CCCc2ccccc21 (centres unmarked) [Compound 0065] | 6.00 to 7.00 | > 7.00 |  | 
40 | O=C(Nc1ccc2ncc(C(=O)N3CCOCC3)cc2n1)NC1CCCC1 [Compound 0141] | < 5.00 | < 5.00 |  | 
41 | C[C@@H](NC(=O)Nc1ccc2ncc(-c3cn[nH]c3)cc2n1)C1CCCC1 [Compound 0198] | 6.00 to 7.00 | > 7.00 |  | 
42 | O=C(Nc1ccc2ncc(CN3CCOCC3)cc2n1)NC1CCCC1 [Compound 0132] | 5.00 to 6.00 | 5.00 to 6.00 |  | 
43 | O=C(Nc1ccc2ncc(-c3cn[nH]c3)cc2n1)NC1CC1 [Compound 0067] | 6.00 to 7.00 | > 7.00 |  | 
44 | O=C(Nc1ccc2ncc(-c3cnn(CCCN4CCCC4)c3)cc2n1)NC1CCCC1 [Compound 0246] | > 7.00 | > 7.00 |  | 
